The conditions of data set [1]: budworm larvae, within 2 hours of a topical acephate application; cited from earlier work.
Data set [2] relates to acetylcholinesterase (AchE). The following applies: cited from earlier work.
For data set [3], the system named is tobacco budworm Heliothis virescens. The following applies: cited from earlier work.
Data set [4] concerns D. melanogaster (strain yw). Kind of data set: 5-FU feeding toxicity in D. melanogaster yw strain. The following applies: 5-FU in food. The data set is classed as in vivo, Drosophila melanogaster. As for the experimental part: FIG. 5. Sensitivity of D. melanogaster (strain yw) to 5-FU. The yw strain is used routinely as recipient for generation of transgenic lines. Flies were reared in stadard Drosophila food supplemented with 5-FU at the indicated concentrations of 0 mM, 5 mM, 10 mM, 20 mM, 30 mM, 50 mM 5-FU. The x-axis represents time in days and the y-axis represents the number of flies. The data points represent the number of surviving flies.
FIG. 6. Dose-dependent lethality of D. melanogaster to 5-FU. The x-axis represents 5-FU concentration in mM and the y-axis represents the number of flies. Strain yw flies that were used in the above described transformation experiment were reared in standard Drosophila food supplemented with 5-FU at the indicated concentrations and viable flies were determined after 9 days. Each data point represents the mean±standard deviation of three separate experiments, each with 100 flies.
(§1) To evaluate the effects of 5-FU on a D. melanogaster yw strain, flies were raised first on medium containing 5-FU. Groups of 25 flies were cultured on food containing various concentrations of the drug. Four vials of each concentration of the drug were used for each experiment and three experiments were performed. The surviving flies per vial were counted over a period of time. […] No eggs were laid on food containing more than 20 mM of 5-FU.

In the next data set the test system is housefly. The following applies: cited from earlier work.
Data set [5] deals with nicotinergic acetylcholine receptor (nAcR). Particulars: methyl group at the 3 position of the imidazole ring; cited from earlier work.
Data set [6] relates to non-transformed adult flies. The data set can be described thus: 5-FC feeding of non-transformed adult flies. The data set is classed as in vivo, Drosophila melanogaster. The following applies: 5-FC in food. As for the experimental part: as §1
The effects of the pro-drug 5-FC on non-transformed adult flies were determined in a similar way.

Data set [7] concerns transgenic Medfly (C. capitata) carrying the cytosine deaminase transgene. Kind of data set: 5-FC susceptibility of transgenic Medfly expressing cytosine deaminase. The data set is classed as in vivo, Ceratitis capitata. As for the experimental part: Using standard methods, a genetic construct is prepared bearing the C. capitata VG1 promoter operably linked to a cDNA encoding E. coli cytosine deaminase. The cytosine deaminase gene, when introduced into insect cells, confers sensitivity to the pro-drug 5-FC.
The construct is inserted into the Minos transposon using conventional techniques and, in addition, those described in U.S. Pat. No. 5,840,865. The modified transposon is then used to transform Medfly according to standard transgenesis procedures.
Transgenic flies carrying the modified transposon are bred to create transgenic strains that express the cytosine deaminase enzyme. […] Moreover, cytosine deaminase expression is correlated with susceptibility to the pro-drug 5-FC administered in food to the flies.
A highly susceptible strain is bred and male flies isolated. Introduction of male flies into a population of non-transgenic flies results in rapid transfer of the transgene. Female flies which are born inheriting the transgene are susceptible to 5-FC, whilst male files remain resistant.

Data set [8] concerns human colorectal carcinoma cells transfected with a construct expressing bacterial CD. The following applies: CD-transfected vs untransfected colorectal carcinoma cells; cited from earlier work.
A further data set relates to CD transformed flies. Kind of data set: 5-FC feeding of CD transformed flies. It is filed as in vivo, Drosophila melanogaster. The following applies: female CD flies compared with male CD flies, 5-FC in food. As for the experimental part:
The effect of the pro-drug 5-FC on CD transformed flies was determined by raising the flies on food containing various concentrations of 5-FC.

The subject of data set [9] is adult boll weevil Anthonomus granids Boheman. The following applies: cited from earlier work.

Results on five compounds are retold here after patent publication US20020194634A1, “Insect control system” (priority 1999, published 2002).

Consider `COP(=O)(NC(C)=O)SC` (stereo not drawn) [Acephate, O, S-dimethyl acetylphosphoramidothicate], for which the “methamidophos formed from acephate” value in [1] is listed as “small amount”. Moreover, the “AchE inhibition (in words)” value in data set [2] was “not an AchE inhibitor”. Besides, the “activity of acephate versus methamidophos” value in data set [3] is on record as “comparable activity”.
Consider `O=c1[nH]cc(F)c(=O)[nH]1` [5-FU, 5-fluorouracil], for which the “concentration in food above which no eggs were laid” value in data set [4] is listed as “more than 20 mM”. Moreover, the “concentration range causing efficient killing of flies” value in data set [4] (within 9 days) was in the range of 30 to 50 mM.
With `CN1CCN(Cc2ccc(Cl)nc2)C1=N[N+](=O)[O-]` [N-Me-imidacloprid], the “potency relative to imidacloprid” value in the data set on housefly is “as potent as imidacloprid”. In addition, the “decrease in binding affinity to nAcR relative to imidacloprid” value in data set [5] was 100 fold.
Take `Nc1nc(=O)[nH]cc1F` [5-FC, 5-fluorocytosine]: in data set [6], the “reduction in fly viability” value is reported as “substantially no reduction”. Also, the entries for the “susceptibility to 5-FC” value in data set [7] (female Medflies inheriting the transgene) and in data set [7] (male Medflies carrying the transgene) were “susceptible” and “resistant”, respectively. For the same compound, the “fold more sensitive to 5-FC than untransfected cells” value in data set [8] is “about 600 fold”. In addition, the “viability with increasing 5-FC” value in the data set with CD transformed flies is “substantial reduction in viability”.
Take `COP(N)(=O)SC` (stereo not drawn) [methamidophos, O, S-dimethyl phosphoramidothicate]: in data set [9], the “fold more toxic than acephate” value is listed as 75 fold. Moreover, the “AchE inhibition (in words)” value in [2] is “potent”. Further, in data set [3], the “activity of acephate versus methamidophos” value is on record as “comparable activity”.
